According to US20140088298A9, “CONJUGATES COMPRISING HYDROXYALKYL STARCH AND A CYTOTOXIC AGENT AND PROCESS FOR THEIR PREPARATION” (Fresenius Kabi Deutschland GmbH, priority 2010, published 2014):

What was measured:
Format in all cases: in vivo, NMRI:nu/nu mice
[1] = Body weight change as sign for toxicity, mouse tumor model MT-3; details: for Toxic deaths (at day): n=8
Experimental: (§1) Tumor growth inhibition was used as therapeutic parameter. Additionally, body weight change was determined as signs for toxicity (particularly, potential hematological or gastrointestinal side effects).
(§2) Individual body weights of mice were determined twice weekly and mean body weight per group was related to the initial value in percent (body weight change, BWC), see tables in appendix.
(§3) Descriptive statistics was performed on the data of body weight and tumor volume. […] Statistical evaluation was performed with the U-test of Mann and Whitney with a significance level of p<0.05, using the Windows program […] 6.
(§4) Tables 18 to 24 summarize the results for the tested Docetaxel conjugates and the reference compound Taxotere®. […] The loss of body weight is known to be an indicator of gastro-intestinal and hepatotoxicity of the tested compound.

[2] = Body weight change as sign for toxicity, mouse tumor model PC3; details: Table 20, PC3; maximum body weight loss; conjugates 1 x 75 mg/kg day 6; Docetaxel 5 mg/kg days 6-10
Experimental: as §1
Descriptive statistics was performed on the data of body weight and tumor volume. […] 6.

[3] = Body weight change as sign for toxicity, mouse tumor model A549; details: Table 21, A549; maximum body weight loss; conjugates 1 x 75 mg/kg day 8; Docetaxel 5 mg/kg days 8-12
Experimental: as §1, §2, §3, §4

Row | SMILES | Toxic deaths (at day) ([1]; Table 25, MT-3, conjugates 1 x 100 mg/kg day 7, Paclitaxel 12.5 mg/kg days 7-9, 10 mg/kg days 10-11) | Toxic deaths (at day) ([1]; Table 26, MT-3, conjugates 1 x 80 mg/kg day 10, Paclitaxel 10 mg/kg days 10-14) | BWC [%] (at day) [2] | BWC [%] (at day) [3] | Toxic deaths (at day) ([1]; Table 18, MT-3, conjugates 1 x 100 mg/kg i.v. day 7, Docetaxel 10 mg/kg days 7, 9, 11) | Toxic death (at day) ([1]; Table 23, MT-3, conjugates 1 x 75 mg/kg day 7, Docetaxel 5 mg/kg days 7-11)
1 | CC(=O)O[C@H]1C(=O)[C@@]2(C)[C@H]([C@H](OC(=O)c3ccccc3)[C@]3(O)C[C@H](OC(=O)[C@H](O)[C@@H](NC(=O)c4ccccc4)c4ccccc4)C(C)=C1C3(C)C)[C@]1(OC(C)=O)CO[C@@H]1C[C@@H]2O [Paclitaxel] | 1 | 0 |  |  |  | 
2 | CC(=O)O[C@@]12CO[C@@H]1C[C@H](O)[C@@]1(C)C(=O)[C@H](O)C3=C(C)[C@@H](OC(=O)[C@H](O)[C@@H](NC(=O)OC(C)(C)C)c4ccccc4)C[C@@](O)([C@@H](OC(=O)c4ccccc4)[C@H]21)C3(C)C [Taxotere, Docetaxel] |  |  | −14 | −5 | 4 | 0
